# Data from patent US8598365B2, “Herbicides” (Syngenta Limited, priority 2007, dated 2013).
# System: Alopecurus myosuroides (ALOMY)
# Assay: Example B pre-emergence herbicidal activity
# Format: in vivo
# Conditions: 312 h, rate 250 g/ha, evaluated after 13 days, read-out: Pre-Emergence Activity ALOMY (100=total damage to plant; 0=no damage to plant)
# Method: (§1) Seeds of a variety of test species were sown in standard soil in pots. After cultivation for one day (pre-emergence) or after 8 days cultivation (post-emergence) under controlled conditions in a glasshouse (at 24/16° C., day/night; 14 hours light; 65% humidity), the plants were sprayed with an aqueous spray solution derived from the formulation of the technical active ingredient in acetone/water (50:50) solution containing 0.5% Tween 20 (polyoxyethelyene sorbitan monolaurate, CAS RN 9005-64-5).
# (§2) The test plants were then grown in a glasshouse under controlled conditions in a glasshouse (at 24/16° C., day/night; 14 hours light; 65% humidity) and watered twice daily. After 13 days for pre and post-emergence, the test was evaluated (100=total damage to plant; 0=no damage to plant).
# (§3) Alopecurus myosuroides (ALOMY), Avena fatua (AVEFA), Setaria faberi (SETFA), Echinochloa crus-galli (ECHCG), Solanum nigrum (SOLNI) and Amaranthus retoflexus (AMARE)
row,SMILES,pest or weed control at 250 g/ha [%]
1,Cc1sc(-c2ccc(Br)cc2F)nc1C1C(=O)[C@@H]2CC[C@@H](C2)C1=O (stereo partly shown) [Compound T32],90
2,COc1cc(F)c(-c2nc(C3C(=O)[C@@H]4CC[C@@H](C4)C3=O)c(C)s2)cc1F (stereo partly shown) [Compound T68],60
3,CCc1sc(-c2ccc(SC)cc2)nc1C1C(=O)[C@@H]2CC[C@@H](C2)C1=O (stereo partly shown) [Compound T83],50
4,CCc1sc(-c2ccc(Cl)cc2Cl)nc1C1C(=O)[C@@H]2CC[C@@H](C2)C1=O (stereo partly shown) [Compound T46],60

# System: Amaranthus retoflexus (AMARE)
# Assay: Example B pre-emergence herbicidal activity
# Format: in vivo
# Conditions: Amaranthus retroflexus, 312 h, rate 250 g/ha, evaluated after 13 days, read-out: Pre-Emergence Activity AMARE (100=total damage to plant; 0=no damage to plant)
# Method: as §1, §2, §3
row,SMILES,pest or weed control at 250 g/ha [%]
1,Cc1sc(-c2ccc(Br)cc2F)nc1C1C(=O)[C@@H]2CC[C@@H](C2)C1=O (stereo partly shown) [Compound T32],0
2,COc1cc(F)c(-c2nc(C3C(=O)[C@@H]4CC[C@@H](C4)C3=O)c(C)s2)cc1F (stereo partly shown) [Compound T68],0
3,CCc1sc(-c2ccc(SC)cc2)nc1C1C(=O)[C@@H]2CC[C@@H](C2)C1=O (stereo partly shown) [Compound T83],0
4,CCc1sc(-c2ccc(Cl)cc2Cl)nc1C1C(=O)[C@@H]2CC[C@@H](C2)C1=O (stereo partly shown) [Compound T46],0

# System: Avena fatua (AVEFA)
# Assay: Example B pre-emergence herbicidal activity
# Format: in vivo
# Conditions: 312 h, rate 250 g/ha, evaluated after 13 days, read-out: Pre-Emergence Activity AVEFA (100=total damage to plant; 0=no damage to plant)
# Method: as §1, §2, §3
row,SMILES,pest or weed control at 250 g/ha [%]
1,Cc1sc(-c2ccc(Br)cc2F)nc1C1C(=O)[C@@H]2CC[C@@H](C2)C1=O (stereo partly shown) [Compound T32],80
2,COc1cc(F)c(-c2nc(C3C(=O)[C@@H]4CC[C@@H](C4)C3=O)c(C)s2)cc1F (stereo partly shown) [Compound T68],70
3,CCc1sc(-c2ccc(SC)cc2)nc1C1C(=O)[C@@H]2CC[C@@H](C2)C1=O (stereo partly shown) [Compound T83],0
4,CCc1sc(-c2ccc(Cl)cc2Cl)nc1C1C(=O)[C@@H]2CC[C@@H](C2)C1=O (stereo partly shown) [Compound T46],30

# System: Echinochloa crus-galli (ECHCG)
# Assay: Example B pre-emergence herbicidal activity
# Format: in vivo
# Conditions: 312 h, rate 250 g/ha, evaluated after 13 days, read-out: Pre-Emergence Activity ECHCG (100=total damage to plant; 0=no damage to plant)
# Method: as §1, §2, §3
row,SMILES,pest or weed control at 250 g/ha [%]
1,Cc1sc(-c2ccc(Br)cc2F)nc1C1C(=O)[C@@H]2CC[C@@H](C2)C1=O (stereo partly shown) [Compound T32],100
2,COc1cc(F)c(-c2nc(C3C(=O)[C@@H]4CC[C@@H](C4)C3=O)c(C)s2)cc1F (stereo partly shown) [Compound T68],0
3,CCc1sc(-c2ccc(SC)cc2)nc1C1C(=O)[C@@H]2CC[C@@H](C2)C1=O (stereo partly shown) [Compound T83],100
4,CCc1sc(-c2ccc(Cl)cc2Cl)nc1C1C(=O)[C@@H]2CC[C@@H](C2)C1=O (stereo partly shown) [Compound T46],100

# System: Setaria faberi (SETFA)
# Assay: Example B pre-emergence herbicidal activity
# Format: in vivo
# Conditions: 312 h, rate 250 g/ha, evaluated after 13 days, read-out: Pre-Emergence Activity SETFA (100=total damage to plant; 0=no damage to plant)
# Method: as §1, §2, §3
row,SMILES,pest or weed control at 250 g/ha [%]
1,Cc1sc(-c2ccc(Br)cc2F)nc1C1C(=O)[C@@H]2CC[C@@H](C2)C1=O (stereo partly shown) [Compound T32],100
2,COc1cc(F)c(-c2nc(C3C(=O)[C@@H]4CC[C@@H](C4)C3=O)c(C)s2)cc1F (stereo partly shown) [Compound T68],80
3,CCc1sc(-c2ccc(SC)cc2)nc1C1C(=O)[C@@H]2CC[C@@H](C2)C1=O (stereo partly shown) [Compound T83],90
4,CCc1sc(-c2ccc(Cl)cc2Cl)nc1C1C(=O)[C@@H]2CC[C@@H](C2)C1=O (stereo partly shown) [Compound T46],90

# System: Alopecurus myosuroides (ALOMY)
# Assay: Example B post-emergence herbicidal activity
# Format: in vivo
# Conditions: 312 h, rate 250 g/ha, evaluated after 13 days, read-out: Post-emergence activity ALOMY (100=total damage to plant; 0=no damage to plant)
# How it was run: (§4)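 Glasshouse pot test, 24/16 °C, 14 h light, 65% RH, watered twice daily. Spray timing: day 1 pre-em., day 8 post-em.; vehicle acetone/water 50:50 + 0.5% Tween 20. Readout 13 d, 0–100% damage.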
row,SMILES,pest or weed control at 250 g/ha [%]
1,Cc1sc(-c2ccc(Br)cc2F)nc1C1C(=O)[C@@H]2CC[C@@H](C2)C1=O (stereo partly shown) [Compound T32],100
2,COc1cc(F)c(-c2nc(C3C(=O)[C@@H]4CC[C@@H](C4)C3=O)c(C)s2)cc1F (stereo partly shown) [Compound T68],70
3,CCc1sc(-c2ccc(SC)cc2)nc1C1C(=O)[C@@H]2CC[C@@H](C2)C1=O (stereo partly shown) [Compound T83],60
4,CCc1sc(-c2ccc(Cl)cc2Cl)nc1C1C(=O)[C@@H]2CC[C@@H](C2)C1=O (stereo partly shown) [Compound T46],100

# System: Amaranthus retoflexus (AMARE)
# Assay: Example B post-emergence herbicidal activity
# Format: in vivo
# Conditions: Amaranthus retroflexus, 312 h, rate 250 g/ha, evaluated after 13 days, read-out: Post-emergence activity AMARE (100=total damage to plant; 0=no damage to plant)
# How it was run: as §4
row,SMILES,pest or weed control at 250 g/ha [%]
1,Cc1sc(-c2ccc(Br)cc2F)nc1C1C(=O)[C@@H]2CC[C@@H](C2)C1=O (stereo partly shown) [Compound T32],0
2,COc1cc(F)c(-c2nc(C3C(=O)[C@@H]4CC[C@@H](C4)C3=O)c(C)s2)cc1F (stereo partly shown) [Compound T68],0
3,CCc1sc(-c2ccc(SC)cc2)nc1C1C(=O)[C@@H]2CC[C@@H](C2)C1=O (stereo partly shown) [Compound T83],0
4,CCc1sc(-c2ccc(Cl)cc2Cl)nc1C1C(=O)[C@@H]2CC[C@@H](C2)C1=O (stereo partly shown) [Compound T46],0

# System: Avena fatua (AVEFA)
# Assay: Example B post-emergence herbicidal activity
# Format: in vivo
# Conditions: 312 h, rate 250 g/ha, evaluated after 13 days, read-out: Post-emergence activity AVEFA (100=total damage to plant; 0=no damage to plant)
# How it was run: as §4
row,SMILES,pest or weed control at 250 g/ha [%]
1,Cc1sc(-c2ccc(Br)cc2F)nc1C1C(=O)[C@@H]2CC[C@@H](C2)C1=O (stereo partly shown) [Compound T32],90
2,COc1cc(F)c(-c2nc(C3C(=O)[C@@H]4CC[C@@H](C4)C3=O)c(C)s2)cc1F (stereo partly shown) [Compound T68],90
3,CCc1sc(-c2ccc(SC)cc2)nc1C1C(=O)[C@@H]2CC[C@@H](C2)C1=O (stereo partly shown) [Compound T83],100
4,CCc1sc(-c2ccc(Cl)cc2Cl)nc1C1C(=O)[C@@H]2CC[C@@H](C2)C1=O (stereo partly shown) [Compound T46],90

# System: Echinochloa crus-galli (ECHCG)
# Assay: Example B post-emergence herbicidal activity
# Format: in vivo
# Conditions: 312 h, rate 250 g/ha, evaluated after 13 days, read-out: Post-emergence activity ECHCG (100=total damage to plant; 0=no damage to plant)
# How it was run: as §4
row,SMILES,pest or weed control at 250 g/ha [%]
1,Cc1sc(-c2ccc(Br)cc2F)nc1C1C(=O)[C@@H]2CC[C@@H](C2)C1=O (stereo partly shown) [Compound T32],100
2,COc1cc(F)c(-c2nc(C3C(=O)[C@@H]4CC[C@@H](C4)C3=O)c(C)s2)cc1F (stereo partly shown) [Compound T68],100
3,CCc1sc(-c2ccc(SC)cc2)nc1C1C(=O)[C@@H]2CC[C@@H](C2)C1=O (stereo partly shown) [Compound T83],100
4,CCc1sc(-c2ccc(Cl)cc2Cl)nc1C1C(=O)[C@@H]2CC[C@@H](C2)C1=O (stereo partly shown) [Compound T46],100

# System: Setaria faberi (SETFA)
# Assay: Example B post-emergence herbicidal activity
# Format: in vivo
# Conditions: 312 h, rate 250 g/ha, evaluated after 13 days, read-out: Post-emergence activity SETFA (100=total damage to plant; 0=no damage to plant)
# How it was run: as §4
row,SMILES,pest or weed control at 250 g/ha [%]
1,Cc1sc(-c2ccc(Br)cc2F)nc1C1C(=O)[C@@H]2CC[C@@H](C2)C1=O (stereo partly shown) [Compound T32],100
2,COc1cc(F)c(-c2nc(C3C(=O)[C@@H]4CC[C@@H](C4)C3=O)c(C)s2)cc1F (stereo partly shown) [Compound T68],100
3,CCc1sc(-c2ccc(SC)cc2)nc1C1C(=O)[C@@H]2CC[C@@H](C2)C1=O (stereo partly shown) [Compound T83],100
4,CCc1sc(-c2ccc(Cl)cc2Cl)nc1C1C(=O)[C@@H]2CC[C@@H](C2)C1=O (stereo partly shown) [Compound T46],100
